Assay [1] deals with T1, IKKα(10-667) EE homodimer (Homo sapiens, UniProt O15111, S176E/S180E).
T1 construct: an equivalent construct of the IKKα homodimer (i.e. IKKα(10-667) S176E/S180E, named IKKα(10-667) EE hereafter); 6×His (followed by TEV site) (N, cleaved yes); made in house; host or cells: Sf21 insect cells (baculovirus)
T1 sequence (O15111 10-667 S176E/S180E): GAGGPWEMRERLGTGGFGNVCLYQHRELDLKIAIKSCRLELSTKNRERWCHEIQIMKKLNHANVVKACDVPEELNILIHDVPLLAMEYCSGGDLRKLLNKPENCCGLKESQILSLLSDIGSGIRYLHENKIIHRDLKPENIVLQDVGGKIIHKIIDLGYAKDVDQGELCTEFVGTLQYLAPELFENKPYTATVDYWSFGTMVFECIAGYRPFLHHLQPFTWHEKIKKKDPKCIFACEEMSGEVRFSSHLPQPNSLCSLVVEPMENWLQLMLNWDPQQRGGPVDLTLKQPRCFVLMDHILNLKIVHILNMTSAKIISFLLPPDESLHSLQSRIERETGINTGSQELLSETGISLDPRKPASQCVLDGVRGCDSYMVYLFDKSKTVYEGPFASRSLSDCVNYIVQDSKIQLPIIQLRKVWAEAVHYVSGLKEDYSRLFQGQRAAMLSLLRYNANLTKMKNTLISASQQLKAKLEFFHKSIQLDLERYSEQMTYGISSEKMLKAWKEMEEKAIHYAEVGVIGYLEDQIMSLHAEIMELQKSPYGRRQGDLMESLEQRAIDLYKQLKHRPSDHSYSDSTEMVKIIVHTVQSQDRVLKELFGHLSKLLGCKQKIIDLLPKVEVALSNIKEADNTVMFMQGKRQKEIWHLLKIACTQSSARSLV
Description: Isothermal titration calorimetry (ITC) of peptide binding to IKKα homodimer. The following applies: for TΔS / ΔG / ΔH / Kd: IKKα. How it is done: All experiments were performed in ITC buffer (20 mM HEPES pH 8.0, 150 mM NaCl, 1 mM TCEP) unless otherwise stated. Purified IKKα(10-667) EE and IKKβ(1-669) EE protein samples were dialyzed overnight against ITC buffer at 4° C. Just before the ITC experiments, IKKα or IKKβ samples were concentrated, incubated at room temperature for 30 minutes and centrifuged at 11000 g to remove eventual precipitate. The final concentrations of IKKα and IKKβ in the sample cell varied between 22 and 50 μM depending on the measurement. HPLC purified synthetic peptides (IκBα pep) comprising residues 297-317 of IκBα were further desalted using a Nap5 (GE Healthcare, #17-0853-01) column equilibrated in milliQ water, lyophilized and then resuspended in ITC buffer. The concentration of peptides in the syringe varied between 220 and 975 μM depending on the measurement.
All ITC measurements were performed using a PEAQ-ITC MALVERN instrument. The titration parameters were set as following: temperature 25° C., reference power 10 μcal/s, feedback=high, stirring speed 750 RPM, initial delay 60 s, first injection 0.4 μl in 0.8 s and the remaining 19 injections were 2 μL in 4 s with 120 s of spacing. The data were fitted to a 1:1 binding model. All data were processed using NITPIC software and global fitting of two datasets was carried out using SEDPHAD.
To evaluate binding affinities, isothermal titration calorimetry (ITC) experiments were performed using a synthetic peptide that comprises the YDDφXφ motif plus the N-terminal acidic patch (residues 297-317, named IκBα pep hereafter) and purified IKKβ(1-669) EE homodimer or an equivalent construct of the IKKα homodimer (i.e. IKKα(10-667) S176E/S180E, named IKKα(10-667) EE hereafter). […] ITC analyses on the IKKα/β heterodimer were prevented by strong aggregation propensity at the concentrations required for these experiments.
All ITC experiments were performed at 25° C. The data were fitted to a 1:1 binding model. N refers to the binding stoichiometry of IKKα/β: pep, meaning that approximately half of total IKKα/β concentration binds pep ligand in agreement with the dimer form of IKKα/β being binding competent. The values for the IKKα interaction with IRF7 pep should be regarded as estimates due to low affinity and weakly exothermic binding, and therefore high experimental error and fitting uncertainty. All data were processed using NITPIC software and global fitting of two datasets was carried out using SEDPHAD.

Assay [2] deals with T2, endogenous IKK immunoprecipitated from HEK293T cells (Homo sapiens, UniProt O14920+O15111).
T2 construct: endogenous canonical IKK, which was immunoprecipitated from HEK293T cells using an anti-NEMO antibody; endogenous in cells; host or cells: HEK293T cells induced with TNFα; anti-NEMO immunoprecipitate on protein G beads
Description: In vitro kinase assay with endogenous IKK, inhibition by synthetic peptides. The following applies: 500 μM synthetic peptide, 1 μM 6×His-IκBα wt, 30° C. The format is biochemical. As to the method:
Using endogenous IKK complex. IKK was immunoprecipitated from HEK293T cells. 3 petri dishes (100×15 mm, corning) of cells at 70% confluence were induced with 10 nM recombinant TNFα (abcam, #ab9642) for 10 minutes, and then washed twice by cold PBS. The whole-cell extracts were prepared by addition of 1 ml of lysis buffer (50 mM HEPES pH 8, 200 mM NaCl, 0.5% NP-40, 1 mM EDTA, 10 mM KCl, 1 mM DTT, Roche cOmplete™ protease inhibitors cocktail, 50 mM NaF, 50 mM b-glycerophosphate and 1 mM Na orthovanadate) and homogenized by passing through a 21-gauge needle for 5-10 times. After 30 minutes of incubation on ice, the extracts were centrifuged at 11,000 g and at 4° C. The cleared supernatants were incubated with 15 μl of anti-NEMO antibody (Santa Cruz biotech, #F-10) overnight at 4° C. and, then, immunoprecipitated with 150 μl of protein G Sepharose beads (GE, #17-0618-01) for 2 hours at 4° C. […]
Kinase activity reactions were performed in kinase buffer (defined above) using 50 μl immunoprecipitant and 1 μM of purified full-length 6×His-IκBα wt or mutant constructs. […] The reaction products were analysed on a 10% SDS-PAGE gel and Western blotting using anti-phospho-IκBα (Cell Signaling Technology, #9246), anti-IKKβ (cell signaling, #2684s) and anti-6×His (sigma, #SAB4301134) antibodies. The relative amounts of phosphorylated IκBα were quantified using ImageJ.

Residues, ends and D or L forms follow the SMILES beside them.

T2 sequence (O14920 whole entry): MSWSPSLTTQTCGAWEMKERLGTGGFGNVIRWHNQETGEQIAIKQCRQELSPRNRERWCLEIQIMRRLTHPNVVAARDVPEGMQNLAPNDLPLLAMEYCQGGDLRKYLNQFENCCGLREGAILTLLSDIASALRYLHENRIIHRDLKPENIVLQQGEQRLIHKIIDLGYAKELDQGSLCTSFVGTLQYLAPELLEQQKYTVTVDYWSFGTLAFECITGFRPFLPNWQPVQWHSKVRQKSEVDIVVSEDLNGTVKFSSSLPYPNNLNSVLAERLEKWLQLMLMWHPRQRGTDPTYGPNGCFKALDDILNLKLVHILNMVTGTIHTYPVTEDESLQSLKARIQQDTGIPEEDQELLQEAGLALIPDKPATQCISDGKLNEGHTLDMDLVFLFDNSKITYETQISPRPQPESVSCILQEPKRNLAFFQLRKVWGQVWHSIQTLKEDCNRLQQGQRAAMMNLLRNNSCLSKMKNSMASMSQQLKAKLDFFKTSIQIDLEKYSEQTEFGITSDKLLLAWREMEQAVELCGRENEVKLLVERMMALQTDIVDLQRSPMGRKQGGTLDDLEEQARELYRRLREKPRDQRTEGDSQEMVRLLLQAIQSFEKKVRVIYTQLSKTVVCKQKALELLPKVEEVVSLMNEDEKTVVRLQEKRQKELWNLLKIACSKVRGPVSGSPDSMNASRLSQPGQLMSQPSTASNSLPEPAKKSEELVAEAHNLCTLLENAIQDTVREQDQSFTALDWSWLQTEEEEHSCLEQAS
T2 sequence (O15111 whole entry): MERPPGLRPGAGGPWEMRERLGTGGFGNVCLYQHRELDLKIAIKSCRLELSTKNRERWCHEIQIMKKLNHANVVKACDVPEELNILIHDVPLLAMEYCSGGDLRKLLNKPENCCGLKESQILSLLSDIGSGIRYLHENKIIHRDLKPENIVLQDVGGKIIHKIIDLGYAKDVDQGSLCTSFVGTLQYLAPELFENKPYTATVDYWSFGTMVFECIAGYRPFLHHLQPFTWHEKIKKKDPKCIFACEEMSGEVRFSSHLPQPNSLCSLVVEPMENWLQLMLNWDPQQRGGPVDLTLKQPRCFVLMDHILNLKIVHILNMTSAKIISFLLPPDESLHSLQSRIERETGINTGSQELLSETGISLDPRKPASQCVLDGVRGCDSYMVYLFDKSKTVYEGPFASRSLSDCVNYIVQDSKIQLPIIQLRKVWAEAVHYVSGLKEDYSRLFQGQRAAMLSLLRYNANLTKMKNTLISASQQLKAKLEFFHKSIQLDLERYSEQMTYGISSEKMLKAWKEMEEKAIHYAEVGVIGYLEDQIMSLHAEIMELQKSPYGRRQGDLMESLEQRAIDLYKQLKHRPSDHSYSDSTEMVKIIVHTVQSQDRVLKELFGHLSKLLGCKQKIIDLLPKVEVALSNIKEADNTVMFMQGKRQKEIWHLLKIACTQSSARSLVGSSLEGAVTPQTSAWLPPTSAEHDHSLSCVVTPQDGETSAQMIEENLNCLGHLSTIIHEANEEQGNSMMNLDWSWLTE
T2 sequence (Q9Y6K9 whole entry partner): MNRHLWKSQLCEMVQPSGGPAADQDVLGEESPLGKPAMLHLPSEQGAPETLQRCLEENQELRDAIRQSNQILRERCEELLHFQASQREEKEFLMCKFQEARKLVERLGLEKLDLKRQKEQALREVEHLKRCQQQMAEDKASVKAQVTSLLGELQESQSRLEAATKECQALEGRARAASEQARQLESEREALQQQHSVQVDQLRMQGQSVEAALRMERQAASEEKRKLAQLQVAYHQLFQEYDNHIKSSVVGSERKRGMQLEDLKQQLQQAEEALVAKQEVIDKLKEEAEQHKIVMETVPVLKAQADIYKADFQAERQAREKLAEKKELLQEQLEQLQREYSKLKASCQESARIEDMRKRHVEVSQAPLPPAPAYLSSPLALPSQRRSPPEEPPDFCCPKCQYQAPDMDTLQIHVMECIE

`CC(C)C[C@H](NC(=O)[C@@H](NC(=O)[C@H](CC(C)C)NC(=O)[C@H](CCCNC(=N)N)NC(=O)[C@H](CCC(N)=O)NC(=O)CNC(=O)CNC(=O)[C@H](Cc1ccccc1)NC(=O)[C@@H](NC(=O)[C@H](CC(C)C)NC(=O)[C@H](CC(=O)O)NC(=O)[C@H](CC(=O)O)NC(=O)[C@H](Cc1ccc(O)cc1)NC(=O)[C@@H]1CCCN1C(=O)[C@H](CC(C)C)NC(=O)[C@H](CCC(=O)O)NC(=O)[C@H](CC(=O)O)NC(=O)[C@H](CCC(=O)O)NC(=O)[C@@H](NC(=O)[C@H](Cc1ccccc1)NC(=O)[C@@H](N)CCC(=O)O)[C@@H](C)O)C(C)C)[C@@H](C)O)C(=O)O` [IkBα pep C308L] (H-EFTEDELPYDDLVFGGQRLTL-OH; N-terminus and C-terminus assumed): in assay [1], the “enhancement of affinity to IKKα relative to IκBα pep wt” value was determined as 25 fold and the affinity, expressed as Kd, was 0.35 µM. In assay [1] (25° C., 1:1 binding model), the “N (binding stoichiometry of IKKα: pep)” value amounted to 0.65. Further, in assay [1] (25° C.), the TΔS is -4.71 kcal/mol, the ΔG is -8.80 kcal/mol and the ΔH is -13.5 kcal/mol. Further, the “inhibition of IκBα phosphorylation (Ser32/Ser36)” value in assay [2] is on record as “inhibit IκBα phosphorylation more efficiently than the YD/SS negative control peptide”.

For the compound `CC(C)C[C@H](NC(=O)[C@@H](NC(=O)[C@H](CC(C)C)NC(=O)[C@H](CCCNC(=N)N)NC(=O)[C@H](CCC(N)=O)NC(=O)CNC(=O)CNC(=O)[C@H](Cc1ccccc1)NC(=O)[C@@H](NC(=O)[C@H](CS)NC(=O)[C@H](CC(=O)O)NC(=O)[C@H](CC(=O)O)NC(=O)[C@H](Cc1ccc(O)cc1)NC(=O)[C@@H]1CCCN1C(=O)[C@H](CC(C)C)NC(=O)[C@H](CCC(=O)O)NC(=O)[C@H](CC(=O)O)NC(=O)[C@H](CCC(=O)O)NC(=O)[C@@H](NC(=O)[C@H](Cc1ccccc1)NC(=O)[C@@H](N)CCC(=O)O)[C@@H](C)O)C(C)C)[C@@H](C)O)C(=O)O` [IκBα pep] (H-EFTEDELPYDDCVFGGQRLTL-OH; N-terminus and C-terminus assumed), in assay [1] (25° C., 1:1 binding model), the “N (binding stoichiometry of IKKα: pep)” value worked out at 0.62 and binding was put at a Kd of 9 µM. Moreover, in assay [1] (25° C.), the TΔS was -8.35 kcal/mol, the ΔG is -6.88 kcal/mol and the ΔH is -15.2 kcal/mol. Also, in assay [2], the “inhibition of IκBα phosphorylation (Ser32/Ser36)” value is on record as “inhibit IκBα phosphorylation more efficiently than the YD/SS negative control peptide”.

(Values after patent US20260265321A1, “PEPTIDE AND POLYPEPTIDE INHIBITING THE NF-KB SIGNALING PATHWAY” (Centre National de la Recherche Scientifique, priority 2023, published 2026).)
